SMILES strings stand for the structures. Where “and” joins values, the source holds several entries; their conditions need not be identical. Equal entries are not always repeated.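 A five-concentration, 48-hour dose response in 96-well plates underlies each endpoint, interpolated linearly between surrounding concentrations. Here, GI50 denotes the concentration required for 50% inhibition of growth.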 Calls of active or inactive are those of the source. No stated cut-off is given here; in the data, active = GI50 up to about 1.1 µM and inactive = higher.

We go through 11 compounds from ChEMBL document CHEMBL1201862, “PubChem BioAssay data set” (2004).

Among the test systems are HL-60; A549; MCF7; ACHN; CCRF-CEM; HCT-116; TK-10; IGROV-1; SF-295; SN12C; PC-3; OVCAR-3; DU-145; SR; SK-OV-3; OVCAR-4; 786-0; SF-268; BT-549; SNB-19.
What all share (assay): NCI-60 cell line screen, 48 h

On to `COC(=O)c1ccccc1/C=C1/Cc2ccccc2C1=O`, for which the GI50 in the assay with HL-60 was 30.1 µM (inactive); with A549 it was 50.7 µM (inactive); in the assay on MCF7, 11.5 µM (inactive); in the assay with ACHN it was 39.2 µM (inactive); with CCRF-CEM, 31.3 µM (inactive); in the assay with HCT-116, 24.4 µM (inactive). Also, the GI50 in the assay on TK-10 is > 100 µM (inactive); in the assay on IGROV-1 it was 27.3 µM (inactive); in the assay on SF-295, 44.1 µM (inactive); in the assay with SN12C it was 17.4 µM (inactive); in the assay with PC-3 it was 48.2 µM (inactive); with OVCAR-3, 23.8 µM (inactive). Also, the GI50 in the assay on DU-145 was > 100 µM (inactive); with SR, 22.2 µM (inactive); in the assay on SK-OV-3, > 100 µM (inactive); in the assay with OVCAR-4 it was 34.4 µM (inactive); in the assay with 786-0, > 10 µM (inactive); in the assay with SF-268 it was > 100 µM (inactive).

With `NC(=S)N/N=C1\C(=O)C=C(Nc2ccc(Cl)cc2Cl)c2ccccc21`, the GI50 was 84.3 µM (inactive) in the assay with HL-60; > 100 µM (inactive) in the assay with A549; 48.9 µM (inactive) with MCF7; 10.3 µM (inactive) with ACHN; 56.2 µM (inactive) with HCT-116; 18.7 µM (inactive) in the assay with BT-549. Also, the GI50 with TK-10 was 32.4 µM (inactive); in the assay on IGROV-1, 22.2 µM (inactive); with SF-295, 12.8 µM (inactive); in the assay with SN12C, > 100 µM (inactive); in the assay on OVCAR-3, 21.3 µM (inactive); with DU-145 it was 96.6 µM (inactive). Also, the GI50 was 12.4 µM (inactive) in the assay with SK-OV-3; 25.5 µM (inactive) in the assay with SNB-19; 33.2 µM (inactive) in the assay on OVCAR-4; 7.85 µM (inactive) in the assay on 786-0; 9.38 µM (inactive) with SF-268.

For the compound `CCCCNC(=S)Nc1nc(C(=O)NNC(=O)c2ccccc2)cs1`, the GI50 in the assay on HL-60 is 96.6 µM (inactive); with A549 it was 20.4 µM (inactive); in the assay on ACHN it was 15.9 µM (inactive); with CCRF-CEM it was 27.9 µM (inactive); with HCT-116, 13.1 µM (inactive); with BT-549, 18.1 µM (inactive). The GI50 in the assay with TK-10 was 19.6 µM (inactive); with IGROV-1, 13.8 µM (inactive); in the assay on SF-295, 15.2 µM (inactive); in the assay with SN12C, 17.3 µM (inactive); in the assay with PC-3, 15.5 µM (inactive); with OVCAR-3 it was 6.14 µM (inactive). The GI50 was 19.6 µM (inactive) in the assay with DU-145; 29.6 µM (inactive) in the assay with SR; 17.5 µM (inactive) in the assay with SK-OV-3; 9.29 µM (inactive) in the assay on OVCAR-4; 16.7 µM (inactive) in the assay with 786-0; 25.9 µM (inactive) in the assay on SF-268.

For the compound `CC1=C(CO)C(=O)O[C@@H]([C@@H](CO)[C@H]2CCC3C4C[C@@H](O)[C@@]5(O)CC=CC(=O)[C@]5(C)C4CC[C@@]32C)C1` (some centres undefined), the GI50 is 31.2 µM (inactive) with HL-60; > 100 µM (inactive) in the assay with A549; 50 µM (inactive) in the assay on MCF7; 36.4 µM (inactive) in the assay on ACHN; 34.1 µM (inactive) with CCRF-CEM; 37.2 µM (inactive) in the assay with HCT-116. Also, the GI50 with BT-549 was 26.4 µM (inactive); in the assay with TK-10, > 100 µM (inactive); in the assay on IGROV-1, > 100 µM (inactive); in the assay with SF-295, > 100 µM (inactive); with SN12C, 55.2 µM (inactive); in the assay on OVCAR-3, 22 µM (inactive). For the same compound, the GI50 is > 100 µM (inactive) with DU-145; 34.9 µM (inactive) with SR; > 100 µM (inactive) in the assay on SK-OV-3; > 100 µM (inactive) in the assay on SNB-19; 91.8 µM (inactive) in the assay with OVCAR-4; 28.6 µM (inactive) with 786-0. The GI50 in the assay on SF-268 was 43.3 µM (inactive).

In the case of `C=CCOc1cc2c(cc1C(C)c1ccc(OC)cc1)OCO2` (centres undefined), the GI50 with HL-60 was 0.196 µM (active); with A549, 0.869 µM (active); in the assay on MCF7, 0.453 µM (active); in the assay with ACHN, 0.612 µM (active); in the assay with CCRF-CEM, 0.443 µM (active); in the assay on HCT-116 it was 0.525 µM (active). Moreover, the GI50 in the assay on TK-10 was 7.41 µM (inactive); with SF-295 it was 0.299 µM (active); in the assay with SN12C it was 0.849 µM (active); with PC-3 it was 0.352 µM (active); in the assay on OVCAR-3, 0.429 µM (active); in the assay with DU-145, 10.6 µM (inactive). Besides, the GI50 in the assay with SR was 0.299 µM (active); with SK-OV-3 it was 0.311 µM (active); in the assay with SNB-19 it was 0.564 µM (active); in the assay with OVCAR-4 it was > 100 µM (inactive); with 786-0 it was 0.655 µM (active); with SF-268 it was 4.88 µM (inactive).

On to `CS(=O)(=O)c1ccc(NNc2cc(=O)[nH]c(=O)[nH]2)cc1`, for which the GI50 in the assay with HL-60 is 52.7 µM (inactive); in the assay on A549, > 100 µM (inactive); in the assay with ACHN, > 100 µM (inactive); with CCRF-CEM, > 100 µM (inactive); in the assay with HCT-116 it was > 100 µM (inactive); in the assay with BT-549, > 100 µM (inactive). Moreover, the GI50 with TK-10 is 0.0155 µM (active); with IGROV-1 it was > 100 µM (inactive); with SF-295, > 100 µM (inactive); in the assay with SN12C, > 100 µM (inactive); with PC-3 it was > 100 µM (inactive); in the assay with OVCAR-3, > 100 µM (inactive). For the same compound, the GI50 with DU-145, in the assay on SR, with SK-OV-3, in the assay on SNB-19, in the assay on OVCAR-4 and with 786-0 was > 100 µM (inactive) each time. Besides, in the assay on SF-268, the GI50 was > 100 µM (inactive).

Consider `O=[N+]([O-])c1cccc(/N=N/c2c(O)ccc3ccccc23)c1`, for which the GI50 was > 100 µM (inactive) in the assay on A549; 16.2 µM (inactive) with CCRF-CEM; > 100 µM (inactive) with HCT-116; 43.8 µM (inactive) in the assay with BT-549; 44.7 µM (inactive) in the assay with TK-10; 94.8 µM (inactive) with IGROV-1. Further, the GI50 is 31 µM (inactive) in the assay on SF-295; > 100 µM (inactive) in the assay with SN12C; 55 µM (inactive) in the assay on PC-3; > 10 µM (inactive) in the assay on OVCAR-3; > 100 µM (inactive) with DU-145; 35.2 µM (inactive) in the assay with SK-OV-3. In addition, the GI50 is 25.4 µM (inactive) in the assay on SNB-19, 66.8 µM (inactive) with OVCAR-4, 69.7 µM (inactive) in the assay on 786-0 and 51.4 µM (inactive) with SF-268.

Take `Cc1nc(=O)[nH]c(NCCNCCO)c1C(=O)Nc1cccc2cc3ccccc3cc12`: the GI50 with HL-60, in the assay on A549, in the assay with ACHN, in the assay with CCRF-CEM, in the assay on HCT-116 and in the assay with BT-549 was > 100 µM (inactive) in each case. Besides, the GI50 in the assay with TK-10, with IGROV-1, in the assay with SF-295, in the assay with SN12C, in the assay with PC-3 and in the assay with OVCAR-3 was > 100 µM (inactive) each time. Moreover, the GI50 in the assay on DU-145, with SR, with SNB-19, in the assay with OVCAR-4, in the assay on 786-0 and in the assay on SF-268 was > 100 µM (inactive) throughout.

For the compound `c1nc(NCCc2c[nH]cn2)c2nc[nH]c2n1`, the GI50 in the assay with HL-60 is 26.7 µM (inactive); with A549, > 100 µM (inactive); in the assay with ACHN, > 100 µM (inactive); in the assay on CCRF-CEM it was > 100 µM (inactive); in the assay with HCT-116 it was > 100 µM (inactive); with BT-549, > 100 µM (inactive). In addition, the GI50 in the assay on TK-10, with IGROV-1, in the assay with SF-295, with SN12C, in the assay with PC-3 and in the assay with OVCAR-3 was > 100 µM (inactive) each time. The GI50 in the assay with DU-145, with SR, in the assay with SK-OV-3, in the assay on SNB-19, in the assay on OVCAR-4 and in the assay with 786-0 was > 100 µM (inactive) in each case. The GI50 in the assay on SF-268 is > 100 µM (inactive).

As to `COc1ccc(-c2c(C#N)c(N)n(C3OC(CO)C(O)C(O)C3O)c(=S)c2C#N)cc1` (centres undefined), the GI50 was > 100 µM (inactive) in the assay with HL-60; > 100 µM (inactive) with A549; 87.9 µM (inactive) and 97.3 µM (inactive) in the assay on ACHN; > 100 µM (inactive) with CCRF-CEM; > 100 µM (inactive) with HCT-116; > 100 µM (inactive) and 76.9 µM (inactive) in the assay with BT-549. Besides, the GI50 in the assay on TK-10 is > 100 µM (inactive); in the assay with IGROV-1, 72.1 µM (inactive); in the assay on SN12C, > 100 µM (inactive); in the assay with PC-3, > 100 µM (inactive) and 99.1 µM (inactive); with OVCAR-3, > 100 µM (inactive) and 97.7 µM (inactive); in the assay with DU-145, > 100 µM (inactive). The GI50 in the assay on SR is > 100 µM (inactive); in the assay with SK-OV-3 it was > 100 µM (inactive); in the assay on SNB-19 it was > 100 µM (inactive); in the assay with OVCAR-4 it was > 100 µM (inactive) and 67.9 µM (inactive); in the assay with 786-0 it was > 100 µM (inactive); in the assay on SF-268 it was > 100 µM (inactive).

Turning to `C/C(=N\O)c1ccc(OCc2cc(C(F)(F)F)cc(C(F)(F)F)c2)cc1`, the GI50 in the assay on HL-60 is 4.13 µM (inactive); in the assay on A549, 46.1 µM (inactive); in the assay on MCF7, 20 µM (inactive); in the assay on ACHN, 25.5 µM (inactive); in the assay with CCRF-CEM it was 15.9 µM (inactive); with HCT-116 it was 31.3 µM (inactive). Also, the GI50 with TK-10 is > 100 µM (inactive); in the assay with IGROV-1, 75 µM (inactive); in the assay with SF-295 it was 55.2 µM (inactive); in the assay with SN12C it was 46.2 µM (inactive); with PC-3, 34.1 µM (inactive); in the assay on OVCAR-3, > 100 µM (inactive). Moreover, the GI50 in the assay with DU-145 was > 100 µM (inactive); in the assay on SR it was 39.4 µM (inactive); with SK-OV-3 it was > 100 µM (inactive); with SNB-19, 64.1 µM (inactive); with OVCAR-4 it was 53.8 µM (inactive); with 786-0 it was 41.2 µM (inactive). Further, the GI50 with SF-268 was 43.2 µM (inactive).
